The source of these data is patent US11285219B2, “Peptide-oligourea hybrid compounds” (UREKA SARL, priority 2019, dated 2022).

A word on the half-life: it is the time needed for the level to fall by half in the phase considered. One may read the EC50 as the concentration giving half of the maximal effect.

Data set [1] has as its system normal mice (C57BL/6J). Put plainly: Blood glucose experiment in healthy mice. The conditions noted are these: for In vivo activity (indicator): blood glucose, mice, i.v.; for effect on blood glucose concentration / time the decrease of blood glucose is preserved after dosing: fed normal mice, 5 μg/mouse i.v.; for effect on blood glucose concentration: monitored 6 h. Format: in vivo, mouse. Also on record: key to In vivo activity (indicator): + = active; +++: + + + = more active. How it is done:
In the first study, we evaluated the effect of the analogues on the blood glucose concentration of normal mice (FIG. 4). The fed mice were treated with the analogues and their blood glucose concentration was monitored before and after dosing for 6 h. […] Indeed, a decrease of blood glucose concentration is observed after 30 min and the effect is preserved for 4 h after dosing.
Blood glucose experiment in healthy mice. After the acclimation period (at least 5 days), mice (male C57BL/6J mice (Charles River laboratories) (8 weeks old, 20-25 g)) were randomized into 10 groups (n=3/group) according to their body weight. They were acutely treated via i.v. route at 10 AM (5 μg/mouse). Blood glucose was measured before dosing and at 30 min, 1, 2, 4, 6 h after dosing in fed conditions.

For data set [2] the following is noted: pH 7.4. As to the method: Mouse plasma stability. […] The oligomer was then diluted 1/50 with a solution of plasma/PBS pH 7.4 (1:1) to afford a final concentration of 5 μM and incubated at 37° C. (4 μL of the stock solution was diluted with 196 μL of plasma/PBS, pH 7.4, 1:1) Each compound was also incubated in the absence of plasma (196 μL of H2O/PBS, pH 7.4, 1:1)). At the indicated time (20 min and 60 min) an aliquot of 70 μL was removed from each experimental reaction and pipetting into 175 μL of acetonitrile at 0° C. to quench the reaction, (t=0 min was determined using the reaction without plasma). The samples were frozen before analysis. The frozen sample were defrost, stirred with a vortex 5 min and finally centrifuged 5 min at 16° C. The supernatant was analyzed by LC-MS. The time course of oligomer degradation was determined by integrating the area of the peak in the extracted ion chromatogram.

For data set [3], the system named is normal mice (C57BL/6J). Put plainly: Intra peritoneal glucose tolerance test (IPGTT) in fasted normal mice. The format is in vivo, mouse. To be noted: for activity in IPGTT 5 min after dosing, 60 min after the glucose challenge: 65 min after dosing, compared to vehicle; for activity in IPGTT 5 min after dosing: glucose 2 g/kg i.p. As to the method: In a second study, an IPGTT was performed 30 min after i.v. injections of 1, 14 and the vehicle (FIGS. 5B1 and 5B2). […] A further IPGTT study was done with a glucose challenge after 2 h of the dosing to investigate the prolong activity of hybrids 14, 22, and 23 (FIGS. 5C1 and 5C2).
IPGTT experiments in mice. After the acclimation period (at least 5 days), mice (male C57BL/6J mice (Charles River laboratories) (6 weeks old, 20-24 g)) were randomized into 6 groups (n=6/group) according to their body weight. The mice were fasted for 6 h prior being acutely treated via i.v. route (5 μg/mouse i.v. (200 μg/kg, 50 nmol/kg)) formulated at 20 μg/mL in PBS 1×. The IPGTTs were performed (glucose 2 g/kg i.p.) 5 min, 30 min, 2 h or 4 h after dosing and blood glucose was measured 30, 60, 90 and 120 min after the glucose challenge.

A further data set deals with NEP 24.11 (Homo sapiens, UniProt P08473). The data set is described as follows: in vitro. The conditions noted are these: pH 8. How it is done: Enzymatic and mouse plasma degradation studies.
NEP 24.11, sequence (P08473 whole entry): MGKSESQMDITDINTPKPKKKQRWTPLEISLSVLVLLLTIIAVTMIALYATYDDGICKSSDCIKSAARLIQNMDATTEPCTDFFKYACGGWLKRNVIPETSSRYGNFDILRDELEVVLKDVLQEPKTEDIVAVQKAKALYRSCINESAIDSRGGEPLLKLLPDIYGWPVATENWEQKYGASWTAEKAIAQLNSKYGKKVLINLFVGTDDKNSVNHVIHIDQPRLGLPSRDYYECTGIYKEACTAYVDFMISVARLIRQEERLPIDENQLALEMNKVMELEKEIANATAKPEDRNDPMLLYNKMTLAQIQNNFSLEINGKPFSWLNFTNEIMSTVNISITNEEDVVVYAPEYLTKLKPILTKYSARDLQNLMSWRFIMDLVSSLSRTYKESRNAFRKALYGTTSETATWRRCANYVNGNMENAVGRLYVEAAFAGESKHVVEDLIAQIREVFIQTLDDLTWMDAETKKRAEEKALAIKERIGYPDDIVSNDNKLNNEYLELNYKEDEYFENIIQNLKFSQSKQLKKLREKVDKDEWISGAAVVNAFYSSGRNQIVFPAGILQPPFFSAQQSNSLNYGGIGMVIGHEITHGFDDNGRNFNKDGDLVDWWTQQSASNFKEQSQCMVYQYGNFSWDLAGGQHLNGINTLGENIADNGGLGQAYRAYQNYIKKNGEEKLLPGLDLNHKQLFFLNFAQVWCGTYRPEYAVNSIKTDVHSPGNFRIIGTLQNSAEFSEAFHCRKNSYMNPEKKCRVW
Enzymatic degradation (NEP 24.11). Stock solutions of the oligomers were prepared at a concentration of 400 μM in a solution of 50 mM HEPES buffer, 50 mM NaCl, 0.05% Tween-80, pH 8.0. Stock solution of NEP 24.11 was prepared at a concentration of 100 μg/mL in water. Stability of oligomers to NEP 24.11 was assessed by conducting protease reaction in a 96-well plates at 20° C. […] Each compound was also incubated in the absence of the enzyme (12 μL of HEPES buffer and 38 μL of oligomer). At the indicated time (1, 2, 4, 6 and 22 hours) an aliquot of 10 μL was removed from each experimental reaction and pipetting into 100 μL of 1% TFA solution to quench the reaction, (t=0 min was determined using the reaction without enzyme). A portion of the quenched reaction solution was analyzed by HPLC. The time course of peptide degradation was determined by integrating the area of each peak in a series of HPLC traces.

For data set [4], the target named is T1, mouse GLP-1 receptor endogenously expressed in βTC6 cells (Mus musculus, UniProt O35659).
T1 construct: host or cells: βTC6 cells
T1 sequence (O35659 22-463): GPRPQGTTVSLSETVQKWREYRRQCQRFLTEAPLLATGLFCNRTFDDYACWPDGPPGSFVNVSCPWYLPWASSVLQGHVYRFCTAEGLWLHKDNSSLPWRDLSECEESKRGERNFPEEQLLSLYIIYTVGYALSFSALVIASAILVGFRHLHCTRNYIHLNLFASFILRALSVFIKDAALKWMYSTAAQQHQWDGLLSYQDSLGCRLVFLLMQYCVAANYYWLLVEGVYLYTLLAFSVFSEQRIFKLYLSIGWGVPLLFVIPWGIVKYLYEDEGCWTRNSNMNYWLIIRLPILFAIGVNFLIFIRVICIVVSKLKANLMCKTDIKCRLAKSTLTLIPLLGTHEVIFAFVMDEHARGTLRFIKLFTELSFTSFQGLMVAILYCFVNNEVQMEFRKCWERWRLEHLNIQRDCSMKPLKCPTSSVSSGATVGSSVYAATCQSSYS
The data set is described as follows: cAMP production functional assay (HTRF), agonist activity at GLP-1R. Format: cell-based. The conditions noted are these: for Potency (%), percentage of potency (cAMP production) compared to GLP-1-G^2: Table 2; for Potency (%), percentage of potency compare to GLP-1-G^2: Table 1; for EC50: read-out: EC50 (nM), GLP-1R potency. How it is done: The agonistic activity of these hybrids were obtained by functional assays using cells expressing the […] and by measuring the receptor-mediated cAMP produced (see supporting information).
In vitro pharmacology (EC50). […] Following incubation, the cells were lysed and the fluorescence acceptor (D2-labeled cAMP) and fluorescence donor (anti-cAMP antibody labeled with europium cryptate) were added.

Where [5] appears, read: receptor-mediated cAMP production, βTC6 cells.

Read-outs that look alike come from different tables or passages of the source. Numbered stars: 1 amine (or outer) side, 2 acyl side, 3 side chain; on linkers, the order of the positions; unused ones are H or OH. Bridge positions count the residues as written; N and C are the ends. Peptide text beside a SMILES is read from it. I, II: the chains in the order shown. X2 = C[C@@H](CNC(=O)N[C@@H](C)CNC(=O)N[C@@H](C)CNC(=O)N[C@@H](C)CNC(=O)[*:2])NC(=O)NC[C@H](CCC(=O)O)NC(=O)NC[C@H](Cc1ccc(O)cc1)N[*:1]; X1 = C[C@@H](CNC(=O)N[C@@H](C)CNC(=O)[*:2])NC(=O)NC[C@H](C)N[*:1]

As for `CC[C@H](C)[C@H](NC(=O)[C@H](Cc1ccccc1)NC(=O)[C@H](CCC(=O)O)NC(=O)[C@H](CCCCN)NC(=O)[C@H](C)NC(=O)[C@H](C)NC(=O)[C@H](CCC(N)=O)NC(=O)CNC(=O)[C@H](CCC(=O)O)NC(=O)[C@H](CC(C)C)NC(=O)[C@H](Cc1ccc(O)cc1)NC(=O)[C@H](CO)NC(=O)[C@H](CO)NC(=O)[C@@H](NC(=O)[C@H](CC(=O)O)NC(=O)[C@H](CO)NC(=O)[C@@H](NC(=O)[C@H](Cc1ccccc1)NC(=O)[C@@H](NC(=O)CNC(=O)[C@H](CCC(=O)O)NC(=O)CNC(=O)[C@@H](N)Cc1c[nH]cn1)[C@@H](C)O)[C@@H](C)O)C(C)C)C(=O)N[C@@H](C)C(=O)N[C@@H](Cc1c[nH]c2ccccc12)C(=O)N[C@@H](CC(C)C)C(=O)N[C@H](C(=O)N[C@@H](CCCCN)C(=O)NCC(=O)N[C@@H](CCCNC(=N)N)C(=O)NCC(N)=O)C(C)C` [Compound 1, GLP-1-G^2, reference compound], in the data set on normal mice (C57BL/6J) [1], the “In vivo activity (indicator)” value is “+” and the “effect on blood glucose concentration” value was “decreased of blood glucose concentration after 30 min”. Besides, the “Mouse Plasma t1/2” value in data set [2] was 0.267 h. The “activity in IPGTT 5 min after dosing, 60 min after the glucose challenge” value in the data set on normal mice (C57BL/6J) [3] is reported as “no more significant effect”. Moreover, in the data set on normal mice (C57BL/6J) [3] (fasted mice, 200 μg/kg i.v.), the “IPGTT 2 h after dosing” value was “IPGTT curve similar to the vehicle”, the “activity in IPGTT 30 min after dosing” value is “inactive” and the “activity in IPGTT 5 min after dosing” value is recorded as “active”. Moreover, on NEP 24.11, the half-life was 3.6 h. Moreover, in data set [4], the “Potency (%), percentage of potency (cAMP production) compared to GLP-1-G^2” value (from here on “Potency (%), percentage … compared to GLP-1-G^2”) turned out to be 100% and the EC50 amounted to 0.24 nM. In addition, in data set [4] (cAMP production), the “times less potent than GLP-1” value was determined as 2.5 times and the “Potency (%), percentage of potency compare to GLP-1-G^2” value is recorded as 100%.
Take `CC[C@H](C)[C@H](NC(=O)[C@H](Cc1ccccc1)NC(=O)NC[C@H](C)NC(=O)NC[C@H](C)NC(=O)NC[C@H](C)NC(=O)[C@H](CCC(N)=O)NC(=O)CNC(=O)[C@H](CCC(=O)O)NC(=O)[C@H](CC(C)C)NC(=O)[C@H](Cc1ccc(O)cc1)NC(=O)[C@H](CO)NC(=O)[C@H](CO)NC(=O)[C@@H](NC(=O)[C@H](CC(=O)O)NC(=O)[C@H](CO)NC(=O)[C@@H](NC(=O)[C@H](Cc1ccccc1)NC(=O)[C@@H](NC(=O)CNC(=O)[C@H](CCC(=O)O)NC(=O)CNC(=O)[C@@H](N)Cc1c[nH]cn1)[C@@H](C)O)[C@@H](C)O)C(C)C)C(=O)N[C@@H](C)C(=O)N[C@@H](Cc1c[nH]c2ccccc12)C(=O)N[C@@H](CC(C)C)C(=O)N[C@H](C(=O)N[C@@H](CCCCN)C(=O)NCC(=O)N[C@@H](CCCNC(=N)N)C(=O)NCC(N)=O)C(C)C` [Compound 14, GG2[A^UA^UA^U]^18-21] (I: H-HGEGTFTSDVSSYLEGQ / II: FIAWLVKGRG-NH2; linker I:C-II:N via X1): in the data set on normal mice (C57BL/6J) [1], the “In vivo activity (indicator)” value is recorded as “+++”, the “time the decrease of blood glucose is preserved after dosing” value is 4 h and the “effect on blood glucose concentration” value is recorded as “improved efficacy”. In addition, in the data set on normal mice (C57BL/6J) [3], the “activity in IPGTT 5 min after dosing, 60 min after the glucose challenge” value is “still active”. In the data set with normal mice (C57BL/6J) [3] (fasted mice, 200 μg/kg i.v.), the “IPGTT 2 h after dosing” value is given as “good control of the blood glucose concentration”, the “IPGTT 4 h after dosing” value is on record as “still active after 6 h of the treatment”, the “activity in IPGTT 30 min after dosing” value was “full activity” and the “activity in IPGTT 5 min after dosing” value is “active”. Moreover, the half-life at […] on NEP 24.11 was 4.9 h. For the same molecule, the “Potency (%), percentage … compared to GLP-1-G^2” value in data set [4] was 6%. Moreover, the “Potency (%), percentage of potency compare to GLP-1-G^2” value in data set [4] (cAMP production) is reported as 6%. For the same molecule, the EC50 in data set [4] (setting [5]) was 4.1 nM.
As to `CC[C@H](C)[C@H](NC(=O)[C@H](Cc1ccccc1)NC(=O)NC[C@H](C)NC(=O)NC[C@H](C)NC(=O)NC[C@H](C)NC(=O)NC[C@H](C)NC(=O)NC[C@H](CCC(=O)O)NC(=O)NC[C@H](Cc1ccc(O)cc1)NC(=O)[C@H](Cc1ccc(O)cc1)NC(=O)[C@H](CO)NC(=O)[C@H](CO)NC(=O)[C@@H](NC(=O)[C@H](CC(=O)O)NC(=O)[C@H](CO)NC(=O)[C@@H](NC(=O)[C@H](Cc1ccccc1)NC(=O)[C@@H](NC(=O)CNC(=O)[C@H](CCC(=O)O)NC(=O)CNC(=O)[C@@H](N)Cc1c[nH]cn1)[C@@H](C)O)[C@@H](C)O)C(C)C)C(=O)N[C@@H](C)C(=O)N[C@@H](Cc1c[nH]c2ccccc12)C(=O)N[C@@H](CC(C)C)C(=O)N[C@H](C(=O)N[C@@H](CCCCN)C(=O)NCC(=O)N[C@@H](CCCNC(=N)N)C(=O)NCC(N)=O)C(C)C` [Compound 23, GG2[Y^uE^uA^uA^uA^uA^u]^14-21] (I: H-HGEGTFTSDVSSY / II: FIAWLVKGRG-NH2; linker I:C-II:N via X2), in the data set on normal mice (C57BL/6J) [1], the “In vivo activity (indicator)” value is recorded as “+++”, the “time the decrease of blood glucose is preserved after dosing” value worked out at 4 h and the “effect on blood glucose concentration” value is listed as “improved efficacy”. Also, in the data set with normal mice (C57BL/6J) [3] (fasted mice, 200 μg/kg i.v.), the “IPGTT 2 h after dosing” value is reported as “good control of the blood glucose concentration”. Moreover, the half-life at […] on NEP 24.11 is 6.1 h. In data set [4], the “Potency (%), percentage … compared to GLP-1-G^2” value was determined as 7%. The “Potency (%), percentage of potency compare to GLP-1-G^2” value in data set [4] (cAMP production) was 7%. For the same molecule, the concentration for a half-maximal effect (EC50) in data set [4] (setting [5]) is 3.4 nM.
